Test results published in publication PMC2009384, “The carcinogenicity of polycyclic hydrocarbon epoxides in newborn mice” (British Journal of Cancer, 1975).

System: newborn Swiss mice
Assay: Experiment II: carcinogenicity in newborn mice, chrysene, 7-methylbenz(a)anthracene and K region epoxides (s.c. injection, tumour incidence to 70-75 weeks)
Settings: for liver tumour incidence: 3 x 100 µg s.c., newborn; for No. of mice examined at p.m. at termination of experiment (70-75th week) with liver tumours / No. of mice examined at p.m. at termination of experiment (70-75th week) with multiple liver tumours / No. of mice examined at p.m. at termination of experiment (70-75th week) with multiple lung tumours / No. of mice examined at p.m. at termination of experiment (70-75th week) with other tumours / No. of mice examined at p.m. from 50-70th week with liver tumours / No. of mice examined at p.m. from 50-70th week with lung tumours / No. of mice examined at p.m. from 50-70th week with other tumours / No. of survivors at 50 weeks / No. of survivors at 70 weeks / No. of mice examined at p.m. at termination of experiment (70-75th week) with lung tumours: 100 µg per treatment; for No. of mice examined at p.m. at termination of experiment (70-75th week) with liver tumours / No. of mice examined at p.m. at termination of experiment (70-75th week) with multiple liver tumours / No. of mice examined at p.m. at termination of experiment (70-75th week) with multiple lung tumours / No. of mice examined at p.m. at termination of experiment (70-75th week) with other tumours / No. of mice examined at p.m. from 50-70th week with liver tumours / No. of mice examined at p.m. from 50-70th week with lung tumours / No. of mice examined at p.m. from 50-70th week with other tumours / No. of mice examined at p.m. at termination of experiment (70-75th week) with lung tumours: 3 treatments; for No. of survivors at 50 weeks / No. of survivors at 70 weeks: 3 treatments (Days 0, 1 and 2) s.c. in PEG 400
Excerpt: Br. J. Cancer (1975) 31, 182 THE CARCINOGENICITY OF POLYCYCLIC HYDROCARBON EPOXIDES IN NEWBORN MICE P. L. GROVER, P. SIMS, B. C. V. MITCHLEY AND F. J. C. ROE From the Chester Beatty Research Institute, Institute of Cancer Research, Royal Cancer Hospital, Fulham Road, London, SW3 6JB Received 9 August 1974. […] THE HYPOTHESIS that the carcino- genicity of polycyclic hydrocarbons is associated with the formation of epoxide metabolites (Grover, Hewer and Sims, 1971, 1972; Keysell et al., 1973) is sup- ported by some experimental evidence but remains unproven. […] The epoxides can also act as alkylating agents (Grover and Sims, 1970) and as mutagens (Ames, Sims and Grover, 1972; Huberman et al., 1971; Cookson, Sims and Grover, 1971; Fahmy and Fahmy, 1973). […] The newborn mouse, which is susceptible to carcinogenic polycyclic hydrocarbons (Roe, Rowson and Salaman, 1961; Roe, Mitchley and Walters, 1963; Walters and Roe, 1964, 1966) can be considered as a convenient source of several types of rapidly dividing cells. Consequently we have tested the K region epoxides derived from phenanthrene, benz(a)anthracene, 7-methylbenz(a)anthracene, dibenz(a,h)- anthracene, chrysene and 3-methylchol- anthrene, together with some of the CARCINOGENICITY OF POLYCYCLIC HYDROCARBON EPOXIDES IN MICE 183 parent hydrocarbons, for carcinogenicity using newborn mice. This paper presents the results that were obtained in these experiments. MATERIALS AND METHODS The polycyclic hydrocarbon epoxides, phenanthrene 9,10-oxide, benz(a)anthracene 5,6-oxide, 7-methylbenz(a)anthracene 5,6- oxide, dibenz(a,h)anthracene 5,6-oxide, chry- sene 5,6-oxide and 3-methylcholanthrene 11,12-oxide were prepared from the parent hydrocarbons (Newman and Blum, 1964; Boyland and Sims, 1965; Sims 1966). Two experiments were undertaken fol- lowing similar protocols. For each experi- ment Swiss mice from a specific pathogen- free colony were time mated so as to produce a large number of litters over the course of 2 or 3 days. […] Test compounds were suspended in poly- ethylene glycol (PEG) 400 and injections of 0-02 ml of the suspension were given by introducing a 25 gauge hypodermic needle through the skin near the root of the tail and threading it subcutaneously to deliver the injected material in the interscapular region. Injections were given to every mouse on the first day or first 3 days of life. The details of treatments and numbers of mice of each sex in each group are shown in Table I (Experiment I) and Table II (Ex- periment II). Surviving mice were weaned when they w ere 21 days old. Thereafter, males and females w ere separated and housed 6 per cage in metal boxes. A mixture of sawdust and wood shavings was used as bedding. The mice were fed on a standard cubed diet (Formulation 86 from C. Holdman and Sons (Plow co Feeds), Byers Lane, South Godstone, Surrey) and water was given ad libitum. Mice were inspected daily, and at weekly intervals they were weighed and palpated for tumours and other lesions. […] The experiment was terminated when surviving mice were between 70 and 75 weeks old. A full routine post- mortem examination, which included disten- sion of the urinary bladder with fixative, was carried out. The number of lesions thought to be neoplasms and the size of the largest such lesion in each organ affected were recorded. All tissues with suspected neoplasms were fixed in Bouin's solution. Haematoxylin and eosin stained 5 µm paraffin wax sections were prepared and examined microscopically. RESULTS The results of the two experiments in terms of tumour incidence are sum- marized in […].

c1ccc2c(c1)-c1ccc3ccccc3c1C1OC21 (centres unmarked) [Chrysene 5,6-oxide]
liver tumour incidence: increased | No. of mice examined at p.m. at termination of experiment (70-75th week) with liver tumours (females): 1 | No. of mice examined at p.m. at termination of experiment (70-75th week) with multiple liver tumours (females): 0 | No. of mice examined at p.m. at termination of experiment (70-75th week) with multiple lung tumours (females): 0 | No. of mice examined at p.m. at termination of experiment (70-75th week) with other tumours (females): 0 | No. of mice examined at p.m. from 50-70th week with liver tumours (females): 0 | No. of mice examined at p.m. from 50-70th week with lung tumours (females): 0 | No. of mice examined at p.m. from 50-70th week with other tumours (females): 0 | No. of survivors at 50 weeks (females): 22 | No. of survivors at 70 weeks (females): 20 | No. of mice examined at p.m. at termination of experiment (70-75th week) with liver tumours (males): 8 | No. of mice examined at p.m. at termination of experiment (70-75th week) with lung tumours (males): 0 | No. of mice examined at p.m. at termination of experiment (70-75th week) with multiple liver tumours (males): 3 | No. of mice examined at p.m. at termination of experiment (70-75th week) with multiple lung tumours (males): 0 | No. of mice examined at p.m. at termination of experiment (70-75th week) with other tumours (males): 0 | No. of mice examined at p.m. from 50-70th week with liver tumours (males): 0 | No. of mice examined at p.m. from 50-70th week with lung tumours (males): 0 | No. of mice examined at p.m. from 50-70th week with other tumours (males): 0 | No. of survivors at 50 weeks (males): 23 | No. of survivors at 70 weeks (males): 21

c1ccc2c(c1)ccc1c3ccccc3ccc21 [Chrysene, reference compound]
liver tumour incidence: increased | No. of mice examined at p.m. at termination of experiment (70-75th week) with liver tumours (females): 0 | No. of mice examined at p.m. at termination of experiment (70-75th week) with lung tumours (females): 0 | No. of mice examined at p.m. at termination of experiment (70-75th week) with multiple liver tumours (females): 0 | No. of mice examined at p.m. at termination of experiment (70-75th week) with multiple lung tumours (females): 0 | No. of mice examined at p.m. at termination of experiment (70-75th week) with other tumours (females): 0 | No. of mice examined at p.m. from 50-70th week with liver tumours (females): 0 | No. of mice examined at p.m. from 50-70th week with lung tumours (females): 0 | No. of mice examined at p.m. from 50-70th week with other tumours (females): 0 | No. of survivors at 50 weeks (females): 22 | No. of survivors at 70 weeks (females): 21 | No. of mice examined at p.m. at termination of experiment (70-75th week) with liver tumours (males): 13 | No. of mice examined at p.m. at termination of experiment (70-75th week) with lung tumours (males): 1 | No. of mice examined at p.m. at termination of experiment (70-75th week) with multiple liver tumours (males): 6 | No. of mice examined at p.m. at termination of experiment (70-75th week) with multiple lung tumours (males): 1 | No. of mice examined at p.m. at termination of experiment (70-75th week) with other tumours (males): 0 | No. of mice examined at p.m. from 50-70th week with liver tumours (males): 0 | No. of mice examined at p.m. from 50-70th week with lung tumours (males): 0 | No. of mice examined at p.m. from 50-70th week with other tumours (males): 0 | No. of survivors at 50 weeks (males): 28 | No. of survivors at 70 weeks (males): 27

c1ccc2c(c1)-c1ccccc1C1OC21 (centres unmarked) [phenanthrene 9,10-oxide]
No. of mice examined at p.m. at termination of experiment (70-75th week) with liver tumours (females): 2 | No. of mice examined at p.m. at termination of experiment (70-75th week) with lung tumours (females): 0 | No. of mice examined at p.m. at termination of experiment (70-75th week) with multiple liver tumours (females): 1 | No. of mice examined at p.m. at termination of experiment (70-75th week) with multiple lung tumours (females): 0 | No. of mice examined at p.m. at termination of experiment (70-75th week) with other tumours (females): 0 | No. of mice examined at p.m. from 50-70th week with liver tumours (females): 0 | No. of mice examined at p.m. from 50-70th week with lung tumours (females): 0 | No. of mice examined at p.m. from 50-70th week with other tumours (females): 0 | No. of survivors at 50 weeks (females): 13 | No. of survivors at 70 weeks (females): 13 | effect on the incidence of liver, lung or other tumours (in the doses tested (3 x 100 µg or 1 x 60 µg)): no effect | No. of mice examined at p.m. at termination of experiment (70-75th week) with liver tumours (males): 4 | No. of mice examined at p.m. at termination of experiment (70-75th week) with lung tumours (males): 2 | No. of mice examined at p.m. at termination of experiment (70-75th week) with multiple liver tumours (males): 1 | No. of mice examined at p.m. at termination of experiment (70-75th week) with multiple lung tumours (males): 1 | No. of mice examined at p.m. at termination of experiment (70-75th week) with other tumours (males): 0 | No. of mice examined at p.m. from 50-70th week with liver tumours (males): 0 | No. of mice examined at p.m. from 50-70th week with lung tumours (males): 0 | No. of mice examined at p.m. from 50-70th week with other tumours (males): 0 | No. of survivors at 50 weeks (males): 19 | No. of survivors at 70 weeks (males): 17
